# Data from patent publication US20210317099A1, “SAFER, POTENT, AND FAST ACTING ANTIMICROBIAL AGENTS” (Purdue Research Foundation, priority 2020, published 2021).
# Tests used:
# [1] = tested on: murine macrophage (J774) cell line; test: In vitro cytotoxicity, MTS assay; type: cell-based; details: J774, 24 hours incubation
# Protocol: Compounds were assayed against a murine macrophage (J774) cell line to determine their in vitro potential toxic effect. Cells were cultured in Dulbecco's Modified Eagle Medium (DMEM) supplemented with 10% FBS at 37° C. with 5% CO2. Control cells received DMSO alone at a concentration equal to that in drug-treated cell samples. The cells were incubated with the compounds (in triplicate) in a 96-well plate at 37° C. with 5% CO2 for 24 hours. The assay reagent MTS; 3-(4,5-dimethylthiazol-2-yl)-5-(3-carboxymethoxyphenyl)-2-(4-sulfophenyl)-2H-tetrazolium) (Promega, Madison, Wis., USA) was subsequently added and the plate was incubated for three to four hours. Absorbance readings (at OD490) were recorded using a kinetic microplate reader (Molecular Devices, Sunnyvale, Calif., USA). The quantity of viable cells after treatment with each compound was expressed as a percentage of the viability relative to DMSO-treated control cells (average of triplicate wells±standard deviation). FIG. 5. […] Results are presented as percent viable mammalian cells (measured as average absorbance ratio relative to DMSO). The absorbance values represent an average of a minimum of three samples analyzed for each compound. Error bars represent standard deviation values for the absorbance values.
# [2] = tested on: intracellular MRSA USA400 inside murine macrophage (J774) cells; test: Clearance of intracellular MRSA in infected J774 macrophages; type: cell-based, Staphylococcus aureus; details: 24 hours, J774 infected with MRSA USA400
# Protocol: The ability of the compound 148 to reduce the burden of intracellular MRSA was evaluated utilizing previously described methods. Murine macrophage cells (J774) were cultured in Dulbecco's Modified Eagle Medium (DMEM) supplemented with 10% FBS at 37° C. with CO2 (5%). J774 cells were exposed to MRSA USA400 cells at a multiplicity of infection of approximately 10:1. After 1 hour of infection, J774 cells were washed with gentamicin (200 μg/mL) to kill extracellular MRSA. The compounds or vancomycin (at 4×MIC and 8×MIC) were subsequently added to each well (four replicates per test agent). Control cells received DMSO at a concentration equal to that in drug-treated cell samples. After 24 hours-incubation at 37° C. with 5% CO2, the test agents were removed. J774 cells were washed and subsequently lysed using 0.1% Triton-X. The solution was serially diluted in phosphate-buffered saline and transferred to TSA plates in order to determine viable MRSA CFU inside the J774 cells. Plates were incubated at 37° C. for 18-22 hour before counting viable CFU/mL. Statistical significance was assessed with two-way ANOVA, with post hoc Dunnet's multiple comparisons test (P<0.05), utilizing GraphPad Prism 6.0 (GraphPad Software, La Jolla, Calif.).
# FIG. 6. Examination of the activity of compounds 148 on the clearance of intracellular MRSA present inside infected murine macrophage (J774) cells. […] Data were analyzed via two-way ANOVA, with post hoc Dunnet's multiple comparisons test (P<0.05), utilizing GraphPad Prism 6.0 (GraphPad Software, La Jolla, Calif.). Asterisks (*) represent significant difference between treatment of J774 cells with compound 148 in comparison to vancomycin.
compound,measurement,setting,value
C=C(C(=O)OC)C(c1ccc2ccccc2c1)C(O)c1cccc2ccccc12 (centres unmarked) [Compound 148],concentration tolerable to J774 cells,[1],≤ 8000 ng/mL
same,reduction of intracellular MRSA,[2]; 4 μg/mL,0.8 log10
same,reduction of intracellular MRSA (percent),[2]; 4 μg/mL,84.9%
same,reduction of intracellular MRSA,[2]; 8 μg/mL,about 2.52 log10
same,reduction of intracellular MRSA (percent),[2]; 8 μg/mL,99.7%
